The text below walks through data of ChEMBL document CHEMBL6127113, “Penicamins A-L, Polyoxygenated Diterpenes from Penicillium camemberti JSB-7212” (J Nat Prod, 2024).

Series [1] in a line: Cytotoxicity against male BALB/c mouse Splenocyte cells incubated for 48 hrs by CCK-8 assay. It counts as toxicity, cell-based. Particulars: splenocytes. Background: Tetrazolium assays rely on reduction of a dye to a coloured formazan, in cell work by metabolically active cells.
The test system of series [2] is Splenocyte. Put plainly: Immunosuppressive activity in male BALB/c mouse splenocyte assessed as reduction in LPS-induced B-cell proliferation incubated for 48 hrs by CCK-8 assay. It counts as functional, cell-based.
The nature of series [3]: Selectivity index, ratio of CC50 for cytotoxicity against male BALB/c mouse Splenocyte cells to IC50 for immunosuppressive activity in male BALB/c mouse splenocyte assessed as reduction in LPS-induced B-cell proliferation. It counts as toxicity, cell-based. Particulars: splenocytes, read-out: Ratio CC50/IC50.
The subject of series [4] is Splenocyte. Put plainly: Immunosuppressive activity in male BALB/c mouse splenocyte assessed as reduction in ConA-induced T-cell proliferation incubated for 48 hrs by CCK-8 assay. It counts as functional, cell-based.
A short description of series [5]: Selectivity index, ratio of CC50 for cytotoxicity against male BALB/c mouse Splenocyte cells to IC50 for immunosuppressive activity in male BALB/c mouse splenocyte assessed as reduction in ConA-induced T-cell proliferation. Particulars: splenocytes, read-out: Ratio CC50/IC50. Format: toxicity, cell-based.
A further series relates to HeLa. Put plainly: Cytotoxicity against human HeLa cells assessed as cell growth inhibition at 50 uM incubated for 48 hrs by CCK-8 assay. Format: functional, cell-based.
Another series has as its system A549. Nature of the series: Cytotoxicity against human A549 cells assessed as cell growth inhibition at 50 uM incubated for 48 hrs by CCK-8 assay. Format: functional, cell-based.
In a further series the test system is HT-29. Put plainly: Cytotoxicity against human HT-29 cells assessed as cell growth inhibition at 50 uM incubated for 48 hrs by CCK-8 assay. It counts as functional, cell-based.
The subject of the next series is MCF7. Put plainly: Cytotoxicity against human MCF7 cells assessed as cell growth inhibition at 50 uM incubated for 48 hrs by CCK-8 assay. Format: functional, cell-based.
A further series concerns HepG2. Put plainly: Cytotoxicity against human HepG2 cells assessed as cell growth inhibition at 50 uM incubated for 48 hrs by CCK-8 assay. Format: functional, cell-based.
The test system of a further series is Escherichia coli. Put plainly: Antimicrobial activity against Escherichia coli ATCC35218 assessed as inhibition of microbial growth at 50 uM incubated for 24 hrs by microbroth dilution assay. Format: functional, organism-based. In general terms: Dilution methods test growth across graded concentrations, often in twofold steps.
The subject of the next series is Staphylococcus aureus. Put plainly: Antimicrobial activity against Staphylococcus aureus ATCC25923 assessed as inhibition of microbial growth at 50 uM incubated for 24 hrs by microbroth dilution assay. Format: functional, organism-based.

Active and inactive are the calls of the source. The calls are words filed in the database; no cut-off is given here.

Turning to `C=C(CO)[C@H]1CC[C@]2(C)[C@@]34CC(=O)[C@@H](C)[C@@H](C[C@]3(C)C(=O)C[C@@]12O)O4`, the 50% cytotoxic concentration (CC50) (commonly the concentration that lowers cell viability or growth by half) at 48 h in series [1] is over 50 µM. Further, the IC50 (as a rule, the concentration that gives 50% inhibition) with Splenocyte [2] is 3 µM; in the series on Splenocyte [4], 19 µM. The results for the selectivity ratio in series [3] and in series [5] were over 17 and over 2.6, respectively. For the same molecule, the result in the series on HeLa, in the series on A549, with HT-29, in the series on MCF7, in the series with HepG2 and with Escherichia coli was inactive. The outcome in the series with Staphylococcus aureus was inactive.
In the case of `C=C(C)[C@H]1CC[C@]2(C)[C@@]3(O)CC(=O)C(C)=CC[C@]3(C)C(=O)C[C@@]12O`, the outcome with HeLa, in the series on A549, in the series with HT-29, in the series on MCF7, in the series on HepG2 and in the series on Escherichia coli was inactive. Also, the outcome in the series on Staphylococcus aureus was inactive.
For `C=C(C)[C@H]1[C@H](O)C[C@]2(C)[C@@]34CC(=O)[C@@H](C)[C@@H](C[C@]3(C)C(=O)C[C@@]12O)O4`, the outcome with HeLa, in the series on A549, in the series with HT-29, with MCF7, in the series on HepG2 and in the series on Escherichia coli was inactive. Also, the result in the series on Staphylococcus aureus was inactive.
As to `C=C(CO)[C@H]1CC[C@@]2(C)C1=CC(=O)[C@@]1(C)C[C@H]3O[C@@]21CC(=O)[C@H]3C`, the CC50 at 48 h in series [1] is over 50 µM. In addition, the IC50 with Splenocyte [2] is 7.9 µM; in the series with Splenocyte [4], 20 µM. Besides, the selectivity ratio in series [3] was over 6.3; in series [5], over 2.5. The outcome in the series with HeLa, in the series on A549, with HT-29, with MCF7, with HepG2 and with Escherichia coli was inactive. Further, in the series with Staphylococcus aureus, the outcome was inactive.
Turning to `C=C(C)[C@H]1CC[C@@]23CO[C@@](O)(C[C@@]12O)[C@@]1(C)C[C@H]2O[C@]13[C@@H](O)C(=O)[C@H]2C`, the outcome in the series on HeLa, with A549, in the series on HT-29, in the series on MCF7, in the series with HepG2 and with Escherichia coli was inactive. In addition, in the series on Staphylococcus aureus, the outcome was inactive.
Turning to `C=C(C)[C@H]1CC[C@@]23CO[C@@]4(O)C(=O)C(C)=CC[C@](C)(C(=O)C[C@@]12O)[C@@]34O`, the outcome with HeLa, in the series with A549, with HT-29, with MCF7, in the series with HepG2 and in the series with Escherichia coli was inactive. In addition, the outcome with Staphylococcus aureus was inactive.
As for `C=C(C)[C@H]1CC[C@]2(C)C3=CC(=O)C(C)=CC[C@]3(C)C(=O)C[C@@]12O`, the outcome with HeLa, in the series with A549, in the series on HT-29, in the series on MCF7, in the series on HepG2 and in the series with Escherichia coli was inactive. For the same molecule, the result in the series with Staphylococcus aureus was inactive.
Turning to `C=C(C)[C@H]1CC[C@@]23CO[C@@]4(O)C(=O)[C@@H](C)CC[C@](C)(C(=O)C[C@@]12O)[C@@]34O`, the result with HeLa, with A549, with HT-29, in the series with MCF7, in the series with HepG2 and with Escherichia coli was inactive. In addition, in the series with Staphylococcus aureus, the outcome was inactive.
As to `C=C(C)[C@H]1CC[C@]2(C)[C@@]34C[C@@H](O)[C@@H](C)[C@@H](C[C@]3(C)C(=O)C[C@@]12O)O4`, the outcome in the series on HeLa, in the series with A549, in the series on HT-29, in the series with MCF7, with HepG2 and in the series on Escherichia coli was inactive. Besides, the outcome with Staphylococcus aureus was inactive.
Regarding `C=C(C)[C@H]1CC[C@@]23CO[C@@](O)(C[C@@]12O)[C@@]1(C)C[C@H]2O[C@]13C(=O)C(O)=C2C`, the outcome in the series with HeLa, in the series with A549, in the series on HT-29, with MCF7, in the series on HepG2 and in the series with Escherichia coli was inactive. In addition, the result with Staphylococcus aureus was inactive.
For `C=C(C)[C@H]1CC[C@]2(C)[C@@]34CC(=O)[C@@H](C)[C@@H](C[C@]3(C)C(=O)C[C@@]12O)O4`, the outcome in the series on HeLa, with A549, in the series with HT-29, in the series on MCF7, with HepG2 and in the series on Escherichia coli was inactive. Also, in the series with Staphylococcus aureus, the result was inactive.
